Data: patent US20250154138A1, “Small Molecule IL-17A Modulators” (BeiGene, Ltd., priority 2022, published 2025)
Like-named read-outs stand apart in the source and are kept apart here.

Columns and labels:
[1] = biological target: human IL-17A / human IL-17RA (Homo sapiens (Human), UniProt Q16552); experiment: Human IL-17A biochemical assay (HTRF, blocking of IL-17A binding to IL-17RA); details: 0.4 nM IL-17A, 0.3 nM IL-17RA, max compound concentration 10 uM
Procedure, shortened: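 Steps: compound dilutions (max 10 uM, 10 points) pre-incubate with 0.4 nM IL-17A for 3 h at RT; 0.3 nM IL-17RA added for 1 h; HTRF antibody pair added for 1 h; fluorescence ratio read and percent inhibition fitted to a four-parameter logistic for IC50.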

[2] = system: IL-17-induced GROα secretion from HT-29 cells; experiment: GROα release assay in human colorectal adenocarcinoma epithelial cell (HT-29, ELISA); assay type: cell-based; details: Homo sapiens, 10 ng/mL IL-17A, highest concentration 10 μM, read-out: Cellular assay HT29 cell/CXCL1 IC50
Method: The purpose of the assay is to test the ability of a compound to neutralize IL17A proteins. IL17 can stimulate human epithelial cells to secrete GROα. The ability of one compound of the invention to neutralize IL-17-induced GROα secretion from the human colorectal adenocarcinoma epithelia cell line HT-29 is tested in this assay.
HT-29 cells (human colorectal adenocarcinoma epithelia cell, ATCC) were stimulated with IL-17A (Novoprotein, #C774) in final concentration of 10 ng/mL. The resultant GROα response was measured using an ELISA kit from Invitrogen (#88-52122). HT-29 cells were cultured in complete medium (McCoy's 5A medium+10% FBS) and maintained in a tissue culture flask using standard techniques. On day 1, detached the cell by using TrypLE (Gibco, #12605036) and used the complete medium to neutralize. The cells were centrifuged at 11,00 rmp for 4 minutes. Re-suspended the cell pellet in complete medium and seeded 50,000 HT-29 cells into the 96-well assay plate (Corning, 3599) at 135 μL complete medium per well. The cells were incubated for overnight, at 37° C./5% CO2 to adherent the plate. On day 2, prepared a 4-fold serial dilution of the tested compound in DMSO. The highest concentration of the compound was 10 μM. Transferred 2 μL of the serial diluted compound from the serial dilution plate into the reagent plate which was contained 198 μL complete medium with 100 ng/mL IL-17A per well. The compounds were incubated with the IL-17A for 15 minutes. 15 μL mixtures from reagent plate were transferred into the cell assay plate. Incubated the plate at 37° C./5% CO2 for 48 hours. After the incubation, on day 4, GROα level were measured with GROα ELISA as the manufacturer's instructions. 50 μL supernatant was collected form the assay plate to ELISA plate. ELISA plate was read at 450 nm on a microplate reader and compared to a standard calibration curve.
Data were processed using GraphPad Prism. GROα concentration was calculated from the standard curve. IC50 was determined using the equation log concentration (inhibitor) against response and fitted to four parameters.

Sequence of human IL-17A / human IL-17RA (Q16552 24-155): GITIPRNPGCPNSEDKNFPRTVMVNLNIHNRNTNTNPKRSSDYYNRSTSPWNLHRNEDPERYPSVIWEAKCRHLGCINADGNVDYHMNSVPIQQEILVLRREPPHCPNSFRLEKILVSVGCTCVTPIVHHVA

Structure (SMILES)	IC50 [1]	IC50 ([2]; HT-29, 48 h)	IC50 ([2]; 48 hours)
CNC(=O)C1(N2C[C@@H](Cc3ccccn3)NC2=O)Cc2ccc(NC(=O)[C@@H](NC(=O)c3ccnn3C)C3CCCCC3)cc2C1 (stereo partly drawn) [Example 43, N-((1S)-1-cyclohexyl-2-((2-(methylcarbamoyl)-2-((R)-2-oxo-4-(pyridin-2-ylmethyl)imidazolidin-1-yl)-2,3-dihydro-1H-inden-5-yl)amino)-2-oxoethyl)-1-methyl-1H-pyrazole-5-carboxamide]	1460 nM	2380 nM	–
CNC(=O)C1(N2CC(C(C)(C)C)NC2=O)Cc2ccc(NC(=O)[C@@H](NC(=O)c3ccnn3C)C3CCCCC3)cc2C1 (stereo partly drawn) [Example 44, N-((1S)-2-((2-(4-(tert-butyl)-2-oxoimidazolidin-1-yl)-2-(methylcarbamoyl)-2,3-dihydro-1H-inden-5-yl)amino)-1-cyclohexyl-2-oxoethyl)-1-methyl-1H-pyrazole-5-carboxamide]	47 nM	231 nM	–
CNC(=O)C1(N2C[C@@H](C(C)C)NC2=O)Cc2ccc(NC(=O)[C@@H](NC(=O)c3ccnn3C)C3CCCC3)cc2C1 (stereo partly drawn) [Example 46, N-((1S)-1-cyclopentyl-2-((2-((R)-4-isopropyl-2-oxoimidazolidin-1-yl)-2-(methylcarbamoyl)-2,3-dihydro-1H-inden-5-yl)amino)-2-oxoethyl)-1-methyl-1H-pyrazole-5-carboxamide]	260 nM	533 nM	–
CNC(=O)C1(N2C[C@@H](C(C)C)NC2=O)Cc2ccc(NC(=O)[C@@H](NC(=O)c3ccnn3C)C3CCCCCC3)cc2C1 (stereo partly drawn) [Example 47, N-((1S)-1-cycloheptyl-2-((2-((R)-4-isopropyl-2-oxoimidazolidin-1-yl)-2-(methylcarbamoyl)-2,3-dihydro-1H-inden-5-yl)amino)-2-oxoethyl)-1-methyl-1H-pyrazole-5-carboxamide]	11 nM	11.6 nM	–
CNC(=O)C1(N2CC(C(C)c3ccccc3)NC2=O)Cc2ccc(NC(=O)[C@@H](NC(=O)c3ccnn3C)C3CCCCC3)cc2C1 (stereo partly drawn) [Example 48, N-((1S)-1-cyclohexyl-2-((2-(methylcarbamoyl)-2-(2-oxo-4-(1-phenylethyl)imidazolidin-1-yl)-2,3-dihydro-1H-inden-5-yl)amino)-2-oxoethyl)-1-methyl-1H-pyrazole-5-carboxamide]	161 nM	1270 nM	–
CNC(=O)C1(N2C[C@@H](C(C)C)NC2=O)Cc2ccc(NC(=O)[C@@H](NC(=O)Oc3ccccc3)C3CCCCC3)cc2C1 (stereo partly drawn) [Example 51, phenyl ((1S)-1-cyclohexyl-2-((2-((R)-4-isopropyl-2-oxoimidazolidin-1-yl)-2-(methylcarbamoyl)-2,3-dihydro-1H-inden-5-yl)amino)-2-oxoethyl)carbamate]	686 nM	–	2050 nM
CNC(=O)C1(N2C[C@@H](C(C)C)NC2=O)Cc2ccc(NC(=O)[C@@H](NC(=O)Cc3ccccc3)C3CCCCC3)cc2C1 (stereo partly drawn) [Example 53, 5-((S)-2-cyclohexyl-2-(2-phenylacetamido)acetamido)-2-((R)-4-isopropyl-2-oxoimidazolidin-1-yl)-N-methyl-2,3-dihydro-1H-indene-2-carboxamide]	223 nM	735 nM	–
CNC(=O)C1(N2C[C@@H](C(C)C)NC2=O)Cc2ccc(NC(=O)[C@@H](NC(=O)c3ccccc3)C3CCCCC3)cc2C1 (stereo partly drawn) [Example 54, 5-((S)-2-benzamido-2-cyclohexylacetamido)-2-((R)-4-isopropyl-2-oxoimidazolidin-1-yl)-N-methyl-2,3-dihydro-1H-indene-2-carboxamide]	24 nM	137 nM	–
CNC(=O)C1(N2C[C@@H](C(C)C)NS2(=O)=O)Cc2ccc(NC(=O)[C@@H](NC(=O)c3ccnn3C)C3CCCCC3)cc2C1 (stereo partly drawn) [Example 55, N-((1S)-1-cyclohexyl-2-((2-((R)-4-isopropyl-1,1-dioxido-1,2,5-thiadiazolidin-2-yl)-2-(methylcarbamoyl)-2,3-dihydro-1H-inden-5-yl)amino)-2-oxoethyl)-1-methyl-1H-pyrazole-5-carboxamide]	1050 nM	1820 nM	–
CNC(=O)C1(N2C[C@@H](Cc3ccc(OC)cc3)NC2=O)Cc2ccc(NC(=O)[C@@H](NC(=O)c3ccnn3C)C3CCCCC3)cc2C1 (stereo partly drawn) [Example 56, N-((1S)-1-cyclohexyl-2-((2-((R)-4-(4-methoxybenzyl)-2-oxoimidazolidin-1-yl)-2-(methylcarbamoyl)-2,3-dihydro-1H-inden-5-yl)amino)-2-oxoethyl)-1-methyl-1H-pyrazole-5-carboxamide]	20 nM	23.7 nM	–
CNC(=O)C1(N2C[C@@H](Cc3cccs3)NC2=O)Cc2ccc(NC(=O)[C@@H](NC(=O)c3ccnn3C)C3CCCCC3)cc2C1 (stereo partly drawn) [Example 57, N-((1S)-1-cyclohexyl-2-((2-(methylcarbamoyl)-2-((R)-2-oxo-4-(thiophen-2-ylmethyl)imidazolidin-1-yl)-2,3-dihydro-1H-inden-5-yl)amino)-2-oxoethyl)-1-methyl-1H-pyrazole-5-carboxamide]	334 nM	2150 nM	–
CNC(=O)C1(N2C[C@@H](C(C)C)NC2=O)Cc2ccc(NC(=O)[C@@H](NC(=O)c3cccnc3)C3CCCCC3)cc2C1 (stereo partly drawn) [Example 58, N-((1S)-1-cyclohexyl-2-((2-((R)-4-isopropyl-2-oxoimidazolidin-1-yl)-2-(methylcarbamoyl)-2,3-dihydro-1H-inden-5-yl)amino)-2-oxoethyl)nicotinamide]	595 nM	1440 nM	–
CNC(=O)C1(N2C[C@@H](C(C)C)NC2=O)Cc2ccc(NC(=O)[C@@H](NC(=O)c3ccnn3C(C)C)C3CCCCC3)cc2C1 (stereo partly drawn) [Example 59, N-((1S)-1-cyclohexyl-2-((2-((R)-4-isopropyl-2-oxoimidazolidin-1-yl)-2-(methylcarbamoyl)-2,3-dihydro-1H-inden-5-yl)amino)-2-oxoethyl)-1-isopropyl-1H-pyrazole-5-carboxamide]	93 nM	34.5 nM	–
CNC(=O)C1(N2C[C@@H](C(C)C)NC2=O)Cc2ccc(NC(=O)[C@@H](NC(=O)c3cnn(C)c3)C3CCCCC3)cc2C1 (stereo partly drawn) [Example 61, N-((1S)-1-cyclohexyl-2-((2-((R)-4-isopropyl-2-oxoimidazolidin-1-yl)-2-(methylcarbamoyl)-2,3-dihydro-1H-inden-5-yl)amino)-2-oxoethyl)-1-methyl-1H-pyrazole-4-carboxamide]	857 nM	4960 nM	–
CNC(=O)C1(N2C[C@@H](Cc3ccc(C)cc3)NC2=O)Cc2ccc(NC(=O)[C@@H](NC(=O)c3ccnn3C)C3CCCCC3)cc2C1 (stereo partly drawn) [Example 62, N-((1S)-1-cyclohexyl-2-((2-((R)-4-(4-methylbenzyl)-2-oxoimidazolidin-1-yl)-2-(methylcarbamoyl)-2,3-dihydro-1H-inden-5-yl)amino)-2-oxoethyl)-1-methyl-1H-pyrazole-5-carboxamide]	24 nM	212 nM	–
C#CCC1CN(C2(C(=O)NC)Cc3ccc(NC(=O)[C@@H](NC(=O)c4ccnn4C)C4CCCCC4)cc3C2)C(=O)N1 (stereo partly drawn) [Example 63, N-((1S)-1-cyclohexyl-2-((2-(methylcarbamoyl)-2-(2-oxo-4-(prop-2-yn-1-yl)imidazolidin-1-yl)-2,3-dihydro-1H-inden-5-yl)amino)-2-oxoethyl)-1-methyl-1H-pyrazole-5-carboxamide]	85 nM	326 nM	–
CNC(=O)C1(N2CC(CC3CC3)NC2=O)Cc2ccc(NC(=O)[C@@H](NC(=O)c3ccnn3C)C3CCCCC3)cc2C1 (stereo partly drawn) [Example 65, N-((1S)-1-cyclohexyl-2-((2-(4-(cyclopropylmethyl)-2-oxoimidazolidin-1-yl)-2-(methylcarbamoyl)-2,3-dihydro-1H-inden-5-yl)amino)-2-oxoethyl)-1-methyl-1H-pyrazole-5-carboxamide]	713 nM	2030 nM	–
CNC(=O)C1(N2C[C@@H](C(C)C)NC2=O)Cc2ccc(NC(=O)[C@@H](NC(=O)c3ccnn3C)C3CCC(F)(F)CC3)cc2C1 (stereo partly drawn) [Example 67, N-((1S)-1-(4,4-difluorocyclohexyl)-2-((2-((R)-4-isopropyl-2-oxoimidazolidin-1-yl)-2-(methylcarbamoyl)-2,3-dihydro-1H-inden-5-yl)amino)-2-oxoethyl)-1-methyl-1H-pyrazole-5-carboxamide]	70 nM	365 nM	–
